Like-named read-outs stand apart in the source and are kept apart here.
Experiments:
[1] = Protocol: Various pharmaceutical drug actives and prodrugs were screened to test for solubility in the compositions including alpha-hydroxy acid esters. Solubility was determined by adding various amounts of the drug to a composition including alpha-hydroxy acid esters, mixing, and then visually determining the solubility. The composition selected for the screening was Imwitor™ 380, a partially neutralized mixture of citric acid/lactic acid esters of partial glycerides. Imwitor™ 380 contains approximately 60% citric acid/lactic acid esters of partial glycerides, less than 32% 1-monoglyceride, and not more than 5% glycerol (Product Information Sheet, 26.13.199e/07.98; Sasol).
Mixtures were based on weight/weight and ranged from 5% drug/95% Imwitor™ 380 to 15% drug/85% Imwitor™ 380. The samples were prepared in 12 ml glass vials, containing a stirbar to ensure adequate mixing, and sealed with Teflon lined caps (National Scientific Co.; vial: part no B7800-12; cap: 15-425).

[2] = remark: listed apart in the source
Protocol: Mixtures were based on weight/weight and ranged from 5% drug/95% unneutralized Imwitor™ 380 to 10% drug/90% unneutralized Imwitor™ 380. The samples were prepared in scintillation vials (Research Products International) containing a stirbar to ensure adequate mixing.

Solubility [1] [mg/gm]	Solubility [2] [mg/gm]	Structure (SMILES)
>150	>100	CCOC(=O)C(C)(C)Oc1ccc(Cl)cc1 [Clofibrate, clofibrate]
>150	>100	CCCC(CCC)C(=O)O [Valproic Acid, valproic acid]

From patent US20040191207A1, “ALPHA-HYDROXY ACID ESTER DRUG DELIVERY COMPOSITIONS AND METHODS OF USE” (priority 2003, published 2004)
